Source: patent US20260103474A1, “NOVEL COMPOUNDS FOR THE DIAGNOSIS OF TDP-43 PROTEINOPATHIES” (AC IMMUNE SA, priority 2022, published 2026)

Experiments:
[1] = target: human FTD Type A sarkosyl-insoluble brain extracts (Homo sapiens, UniProt Q13148); experiment: Kd determination by micro-radiobinding assay on FTD Type A extracts; assay type: binding; settings: tritiated compound 1.29 to 300 nM
Protocol: Human brain extracts were prepared as described in Laferriere et al., 2019, Nature Neurosc. A sample of brain tissue (frontal or temporal cortex) was homogenized at 1:4 (w/v) ratio in the homogenization-solubilization (HS) buffer at 4° C. using tissue homogenizer (Precellys) with CKmix homogenization tubes. The following sequence was used for homogenization: 3 cycles of 30 seconds at 5000 rpm (with 15 seconds pause between each cycle). Homogenized samples were aliquoted and stored at −80° C. in 1.5 mL low protein binding tubes.
Brain homogenates were thawed on ice and resuspended in HS buffer to obtain a final concentration of 2% sarkosyl, 1 unit/μL Benzonase and 1 mM MgCl2. The samples were then incubated at 37° C. under constant shaking at 600 rpm on a thermomixer for 45 minutes (min). The supernatants were collected in a new tube (sarkosyl-soluble fraction, S1). The pellet was resuspended in 1000 μL of myelin floatation buffer and centrifuged at 20,000 g for 60 min at 4° C. The supernatant was carefully removed to remove all the floating lipids. This step was repeated if all the lipids could not be removed in a single step. The pellet was subsequently washed with Phosphate-Buffered Saline (PBS) and centrifuged for 30 min at 20,000 g at 4° C. The final pellet was resuspended in 200 μL PBS and stored at −80° C. (sarkosyl-insoluble fraction). The samples were analyzed by immunoblotting in denaturing conditions.
Human FTD sarkosyl-insoluble brain extracts were spotted onto microarray slides. The slides were incubated with [^3H]-Compounds 1, 7, 8, 9, 15, 16 and 17 in a range of concentrations, varying from 1.29 to 300 nM. After incubation, slides were washed and scanned by a real-time autoradiography system (BeaQuant, ai4R). Quantification of the signal was performed by using the Beamage image analysis software (ai4R). Non-specific signal was determined with an excess of non-radiolabeled compound 1, 7, 8, 9, 15, 16 and 17 (1 μM), respectively, and specific binding was calculated by subtracting the non-specific signal from the total signal.
The Kd (Dissociation constant) and R^2 (parameter ranging between 0.0 and 1.0 that quantifies the goodness of fit, and the best curve fit obtained with value of 1.0) were obtained by fitting the specific binding data with non-linear regression analysis, using a one-site specific binding model in GraphPad Prism8.

TDP-43 aggregates = TDP-43 aggregates (Homo sapiens, UniProt Q13148); experiment: Micro-autoradiography staining in brain sections from patients with FTD; assay type: binding; set-up: from tissue; host or cells: frozen post-mortem human brain sections (FTLD-TDP type A and type B; non-demented controls in the classical autoradiography); settings: FTLD-TDP type A brain sections; 120 nM
Protocol: All tissues were collected from donors for or from whom a written informed consent for a brain autopsy and the use of the material and clinical information for research purposes had been obtained by the respective brain banks. All samples were anonymized and coded. Frozen brain tissue blocks with confirmed TDP-43 pathology upon autopsy were processed using a cryotome to generate sections of 10 μm in thickness and mounted on glass slides. Sections were kept at −80° C. until use.
Brain sections were immunostained using a commercially available antibody, specific for phosphorylated serine at amino acid 409/410 (anti-pTDP-43 pS409/410, Biolegend, 829901). Sections were fixed for 15 minutes at 4° C. with 4% formaldehyde (Sigma, 252549) and washed three times for height minutes with 1×PBS (Dulbecco's phosphate buffered saline, Sigma D1408) at room temperature. Next, sections were saturated and permeabilized in blocking buffer (PBS, 10% normal goat serum (NGS), 0.25% Triton X-100) for one hour at room temperature and incubated overnight at 4° C. with primary antibody against pTDP-43 (diluted at 1/500 in PBS, 5% NGS, 0.25% Triton X-100). The following day, sections were washed three times for height minutes with 1×PBS before incubation with a secondary, AlexaFluor633-labeled goat-anti-rat antibody (Invitrogen, A-21094, diluted at 1/500 in PBS) for 45 minutes at room temperature. Following incubation with […] antibodies the sections were washed three times in PBS before being processed further.
For micro-autoradiography, tritiated test compound ([^3H]-Compound 1, [^3H]-Compound 9 or [^3H]-Compound 17 respectively) was incubated on the sections at 120 nM in 50 mM Tris buffer pH 7.4 for 45 minutes at room temperature. Sections were then washed as follows: once in ice-cold 50 mM Tris-HCl pH 7.4 buffer for one minute, twice in ice-cold 70% ethanol for one minute, once in ice-cold 50 mM Tris-HCl pH 7.4 buffer for one minute and finally rinsed briefly in ice-cold distilled water. Sections were subsequently dried for one hour under a stream of air and then exposed to Ilford Nuclear Emulsion Type K5 (Agar Scientific, AGP9281) for ten days at 4° C. in a light-proof slide storage box. The sections were developed by immersing them successively in the following solutions: 1.) Ilford Phenisol Developer (1:5 dilution in H2O, Agar Scientific, AGP9106) for four minutes, 2.) Ilfostop solution (1:20 dilution in H2O, Agar Scientific, AGP9104) for two minutes, 3.) Ilford Hypam Fixer (1:5 dilution in H2O, Agar Scientific, AGP9183) for four minutes and finally rinsed with H2O for 10 minutes.
For image acquisition, sections were mounted using ProLong Gold Antifade reagent (Invitrogen P36930) and imaged on a Panoramic250 Slide Scanner (3DHistech) with a 40× objective capturing brightfield and fluorescent images separately or on a Panoramic Scan II (3DHistech) with a 20× objective. The Visiopharm image analysis software suite was used to align the fluorescent image with the brightfield image.

Sequence of human FTD Type A sarkosyl-insoluble brain extracts (Q13148 263-414 limits assumed): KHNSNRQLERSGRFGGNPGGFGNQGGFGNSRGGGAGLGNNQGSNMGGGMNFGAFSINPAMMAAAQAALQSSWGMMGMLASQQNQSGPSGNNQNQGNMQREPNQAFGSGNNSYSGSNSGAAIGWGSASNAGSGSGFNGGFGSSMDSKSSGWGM
Sequence of TDP-43 aggregates (Q13148 whole entry): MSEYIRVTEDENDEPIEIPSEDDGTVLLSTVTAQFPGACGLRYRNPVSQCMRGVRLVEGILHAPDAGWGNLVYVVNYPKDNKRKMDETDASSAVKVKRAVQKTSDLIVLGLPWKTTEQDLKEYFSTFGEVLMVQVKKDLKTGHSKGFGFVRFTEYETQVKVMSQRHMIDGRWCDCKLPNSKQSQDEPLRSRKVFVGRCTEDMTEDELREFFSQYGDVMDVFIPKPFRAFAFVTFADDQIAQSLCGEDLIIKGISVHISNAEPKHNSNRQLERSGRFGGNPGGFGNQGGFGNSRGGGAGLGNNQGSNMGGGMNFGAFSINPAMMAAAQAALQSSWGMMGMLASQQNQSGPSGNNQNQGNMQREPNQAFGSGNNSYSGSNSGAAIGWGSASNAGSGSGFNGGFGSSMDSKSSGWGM

- Kd [1]: 26 nM
- Micro-autoradiography silver grain signal versus pTDP-43 immunostaining (TDP-43 aggregates): colocalization with pTDP-43 aggregates
Compound: [3H]c1cncc(N2CCc3nc(-c4cc([3H])c(N5CCCC5)nc4F)sc3C2=O)c1 [[^3H]-Compound 9, Tritiated 2-(2-fluoro-6-(pyrrolidin-1-yl)pyridin-3-yl)-5-(pyridin-3-yl)-6,7-dihydrothiazolo[5,4-c]pyridin-4(5H)-one]
